Measured values reported in PMC7616463, “Peptidic boronic acid Plasmodium falciparum SUB1 inhibitors with improved selectivity over human proteasome” (Journal of medicinal chemistry, 2024).
Where two headings read alike, the source gives them in different places.

What was measured:
[1] = target: T1, human 20S proteasome (H20S), chymotrypsin-like β5 activity (Homo sapiens, UniProt P20618+P28074); assay: Human 20S proteasome kinetic assay (chymotrypsin-like β5 activity); assay type: biochemical; conditions: purified human 20S proteasome, β5 activity, substrate LLVY-R110, fluorescence; duplicate; read-out: IC50, nM H20S inhibition
T1 construct: variant as stated: H20S
Experimental: The fluorescent Proteasome substrate LLVY-R110 (ex: 490 nm, Em:525 nm) (#MAK172, Sigma-Aldrich) was used to measure the chymotrypsin-like activity (β5) of the human 20S proteasome and was prepared according to the activity assay kit instructions. Cleavage of this peptide generated intense green fluorescence due to the R110 group and was monitored at 520-530 nm with excitation at 480-500 nm. The purified human 20S proteasome (BML-PW8720-0050, EnzoSciences), stored at 1mg/ml in 20 mM Tris-HCl pH 7.2, 1mM EDTA, 1mM DTT 1mM NaN3, 50% glycerol was diluted in TRIS-buffered saline (TBS, pH 7.4) to an intermediate concentration of 0.44 μM. […] The reactions were performed in white 96-well fluorescent microtiter-plate format (Nunc). The Substrate solution was added first (100 μl), followed by 1 μl of the inhibitor (50 μM intermediate stock) and 1 μl of the H20S proteasome at 0.44 μM. The IC50s were determined for a selection of potent PfSUB1 inhibitors. After sequential dilution of the inhibitors in 100% DMSO, 1 μl of each dilution was used in a 100 μl reaction containing the fluorescent substrate. The reaction was initiated by the addition of 1 μl of the 20S proteasome intermediate stock solution. The fluorescence increase was monitored using a SpectraMax M5e plate reader and SoftMax Pro-6.3 software Measure activity on a plate reader (ex: 490 nm, Em: 525 nm) with the photomultiplier tube (PMT) set to medium with readings every 3 min for one hour. All measurements were done in duplicate. The progress curves were plotted within GraphPad Prism 9.5.0.

[2] = test system: P. falciparum line B11; assay: Parasite growth assay, wild-type B11 line; assay type: cell-based; conditions: Plasmodium falciparum, 96 h, read-out: EC50 parasite growth, B11 line
Source text: The DiCre-expressing P. falciparum line B11 (derived from a 3D7 background) has been described in full previously.[45] […] Briefly, the B11 line was first modified by the incorporation into the genomic Pfs47 locus of a cassette for constitutive expression of a TetR-DOZI fusion protein. The 3’ flanking region of the SUB1 gene was then modified by incorporation of 10 Tet repressor-binding aptamers, following by limiting dilution cloning to obtain a genetically homogenous line called 1AC5. […] Complete details of the characterization of this parasite line will be provided in a separate manuscript.
(§1) The effects of test compounds on in vitro growth of the B11 and 1AC5 P. falciparum lines was determined by flow cytometry as described previously.[48] Briefly, synchronous ring-stage parasites at 0.1% parasitaemia and 2% haematocrit were dispensed into flat-bottomed 96-well culture plates (200 ul per well) each containing 1 ul of appropriate serial dilutions of boronic acid or control antimalarial compounds in DMSO. Control wells contained DMSO only. Following incubation in sealed, humidified gassed chambers at 37°C for 96 h to allow the parasites to undergo two entire cycles of erythrocytic growth, cells were fixed, stained with SYBR green and analysed by flow cytometry on a BD FACSVerse™ using BD FACSuite™ software. Data were analysed using FlowJo software. EC50 values and statistical data were determined from dose-response curves generated using GraphPad Prism 10 (GraphPad Software).

[3] = test system: P. falciparum line 1AC5 (8-10-fold reduced PfSUB1); assay: Parasite growth assay, PfSUB1 knock-down 1AC5 line; assay type: cell-based, Plasmodium falciparum; conditions: Plasmodium falciparum, 96 h, read-out: EC50 parasite growth, 1AC5 line
Source text: The DiCre-expressing P. falciparum line B11 (derived from a 3D7 background) has been described in full previously.[45] To generate a mutant line selectively expressing reduced levels of PfSUB1, we exploited the anhydrotetracycline (aTc)-inducible TetR aptamer system described by Niles and colleagues[46] and subsequently adapted by Rajaram et al.[47] Briefly, the B11 line was first modified by the incorporation into the genomic Pfs47 locus of a cassette for constitutive expression of a TetR-DOZI fusion protein. The 3’ flanking region of the SUB1 gene was then modified by incorporation of 10 Tet repressor-binding aptamers, following by limiting dilution cloning to obtain a genetically homogenous line called 1AC5. […] Complete details of the characterization of this parasite line will be provided in a separate manuscript.
as §1

[4] = test system: HepG2 cells; assay: Mammalian cell cytotoxicity assay (resazurin); assay type: cell-based; conditions: HepG2, 48 h treatment, resazurin; triplicate; tested up to 30 μM (1a), 200 μM (4c), 150 μM (tipifarnib)
Experimental: HepG2 cells were cultured in Dulbecco’s Modified Eagle Medium with F12 GlutaMAX (DMEM/F12 GlutaMAX) (Gibco) supplemented with 10% (v/v) heat-inactivated foetal calf serum (FCS), 1% L-glutamine and 1% penicillin-streptomycin (10,000 U/ml), and maintained in a humidified 5% CO2 incubator at 37°C. The culture medium was changed every 2-3 days and cells were passaged when a confluency of 75-80% was reached. At passage 2 or above, HepG2 cells were harvested using 0.25% trypsin-0.53 mM EDTA (Gibco). Cell counts and cell viability were determined by an automated cell counting machine (vi-CELL, Beckman) and seeded at a density of 1x10^4-5x10^5 cells per well in a transparent flat-bottom 96-well plate (Corning), and maintained in a humidified 5% CO2 incubator at 37°C. […] As a vehicle control, 1% DMSO was used. After 48 hs, media was removed and replaced with 100 μl media containing 10% resazurin solution (Invitrogen) and incubated for 4 h at 37°C in 5% CO2. After 4 h, the solution was transferred to an opaque 96-well plate (Corning) to measure reduction of resazurin to resorufin using a SpectraMax M5 microplate reader (Molecular Devices LLC) (ex. 560 nm, em. 590 nm). Cells without treatment compounds were used to determine 100% viability. Cell viability was determined by measuring fluorescence as a % of solvent control. Concentration viability response curves, CC50 values, mean CC50 value and standard error were generated using GraphPad Prism 10 (GraphPad Software).

[5] = target: T2, recombinant PfSUB1 (rPfSUB1) (Plasmodium falciparum, UniProt Q8I0V0); assay: PfSUB1 enzyme assay (recombinant PfSUB1, fluorogenic peptide substrate); assay type: biochemical; conditions: for IC50: rPfSUB1, substrate SERA4st1F-6R12 0.1 μM, 5 min preincubation, pH 8.2, fluorescence, duplicate, read-out: IC50, nM PfSUB1 inhibition; for inhibition of rPfSUB1 activity at 1 μM: 1 μM final concentration, typical of duplicate assays
T2 construct: made in house
Experimental: The proteolytic activity of rPfSUB1 was monitored by the cleavage of the fluorogenic peptidic substrate SERA4st1F-6R12 (Ac-[…]-OH) and has been described previously.[28] Briefly, chymotrypsin treated rPfSUB1 (expressed and purified as described before […] was stored at −80 °C as a 228 U/mL stock in 20 mM Tris−HCl pH 8.2, 150 mM NaCl, 10% glycerol, and diluted for use (1:500) in reaction buffer (20 mM Tris−HCl pH 8.2, 150 mM NaCl, 12 mM CaCl2, 25 mM CHAPS). Peptidic boronic acid inhibitors were dissolved in 100% DMSO at 20 mM, then further diluted in DMSO to generate stock solutions ranging from 500 to 0.01 μM and then used diluted 1:100 in the enzyme reactions. All reactions were performed in wells of white 96-well microwell plates (Nunc); 50 μL diluted rPfSUB1 was preincubated for 5 min with 1 μL each of the serially diluted boronic acid inhibitors, followed by addition of 50 μL substrate solution (0.1 μM final). Subsequent fluorescence increase was continuously monitored using a SpectraMax M5e plate reader and SoftMax Pro-6.3 software, with readings taken every 3 min for 60 min using excitation and emission values of 552 and 580 nm, respectively. […] All experiments were performed in duplicate.

[6] = 2 erythrocytic cycles, SYBR green flow cytometry, triplicate, 95% confidence interval in parentheses

T2 sequence (Q8I0V0 218-688): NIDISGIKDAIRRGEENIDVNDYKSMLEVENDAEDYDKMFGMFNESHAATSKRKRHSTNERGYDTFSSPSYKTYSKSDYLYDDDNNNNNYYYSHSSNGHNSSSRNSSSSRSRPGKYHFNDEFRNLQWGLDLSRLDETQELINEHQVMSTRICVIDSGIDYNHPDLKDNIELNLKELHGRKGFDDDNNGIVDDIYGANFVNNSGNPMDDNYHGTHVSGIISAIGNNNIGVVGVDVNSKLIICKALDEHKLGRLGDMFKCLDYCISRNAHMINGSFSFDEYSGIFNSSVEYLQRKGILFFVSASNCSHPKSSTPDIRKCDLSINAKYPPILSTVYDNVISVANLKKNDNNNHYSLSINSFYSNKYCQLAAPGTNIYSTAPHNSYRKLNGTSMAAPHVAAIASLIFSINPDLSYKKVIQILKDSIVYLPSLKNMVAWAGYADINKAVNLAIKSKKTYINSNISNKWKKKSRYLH

Molecule	IC50 [1]	IC50 [5]	other results
CC(=O)N[C@H](C(=O)N[C@H](C(=O)NCC(=O)N[C@@H](C)B(O)O)C(C)C)C1CCCC1 [1a]	32.8 ± 1.7 nM	–	EC50 [2, 6]: 150 nM; EC50 [3]: 130 nM; CC50 (concentration that reduced cell viability by 50%) [4]: 11000 nM
CC(=O)N[C@H](C(=O)N[C@H](C(=O)NCC(=O)N[C@@H](C)B(O)O)[C@@H](C)O)C1CCCC1 [1b]	35.4 ± 1.7 nM	–	–
CC[C@H](C)[C@H](NC(=O)[C@@H](NC(=O)c1ccc2ccccc2n1)C1CCCC1)C(=O)NCC(=O)N[C@@H](C)B(O)O [3a, ((3S,6S,12R)-6-((S)-sec-butyl)-3-cyclopentyl-1,4,7,10-tetraoxo-1-(quinolin-2-yl)-2,5,8,11-tetraazatridecan-12-yl)boronic acid]	6 ± 0.5 nM	9.5 ± 0.6 nM	–
CC[C@H](C)[C@H](NC(=O)[C@@H](NC(=O)c1cccc(-c2ccccc2)n1)C1CCCC1)C(=O)NCC(=O)N[C@@H](C)B(O)O [3b, ((3S,6S,12R)-6-((S)-sec-butyl)-3-cyclopentyl-1,4,7,10-tetraoxo-1-(6-phenylpyridin-2-yl)-2,5,8,11-tetraazatridecan-12-yl)boronic acid]	7 ± 0.1 nM	9.3 ± 0.2 nM	–
CC[C@H](C)[C@H](NC(=O)[C@@H](NS(=O)(=O)c1nccs1)C1CCCC1)C(=O)NCC(=O)N[C@@H](C)B(O)O [3h, ((R)-1-(2-((2S,3S)-2-((S)-2-cyclopentyl-2-(thiazole-2-sulfonamido)acetamido)-3-methylpentanamido)acetamido)ethyl)boronic acid]	–	3.4 ± 0.3 nM	–
CC[C@H](C)[C@H](NC(=O)[C@@H](NCc1ccccc1)C1CCCC1)C(=O)NCC(=O)N[C@@H](C)B(O)O [3i, ((3S,6S,12R)-6-((S)-sec-butyl)-3-cyclopentyl-4,7,10-trioxo-1-phenyl-2,5,8,11-tetra-azatridecan-12-yl)boronic acid]	–	23.2 ± 0.3 nM	–
CC[C@H](C)[C@H](NC(=O)[C@@H](NCc1ccccn1)C1CCCC1)C(=O)NCC(=O)N[C@@H](C)B(O)O [3j, ((3S,6S,12R)-6-((S)-sec-butyl)-3-cyclopentyl-4,7,10-trioxo-1-(pyridin-2-yl)-2,5,8,11-tetraazatridecan-12-yl)boronic acid]	–	71 ± 6.8 nM	–
CC[C@H](C)[C@H](NC(=O)[C@@H](NC(=O)c1ccc2ccccc2n1)C1CCCC1)C(=O)NCC(=O)N[C@H]1CCC(=O)OB1O [4a, N-((S)-1-cyclopentyl-2-(((2S,3S)-1-((2-(((R)-2-hydroxy-6-oxo-1,2-oxaborinan-3-yl)amino)-2-oxoethyl)amino)-3-methyl-1-oxopentan-2-yl)amino)-2-oxoethyl) quinoline-2-carboxamide]	410 ± 5 nM	36.1 ± 2.4 nM	–
CC[C@H](C)[C@H](NC(=O)[C@@H](NC(=O)c1cccc(-c2ccccc2)n1)C1CCCC1)C(=O)NCC(=O)N[C@H]1CCC(=O)OB1O [4b, N-((S)-1-cyclopentyl-2-(((2S,3S)-1-((2-(((R)-2-hydroxy-6-oxo-1,2-oxaborinan-3-yl)amino)-2-oxoethyl)amino)-3-methyl-1-oxopentan-2-yl)amino)-2-oxoethyl)-6-phenylpicolinamide]	160 ± 10 nM	13 ± 0.6 nM	–
CC(C)C[C@H](NC(=O)[C@H](Cc1ccccc1)NC(=O)c1cnccn1)B(O)O [5a, bortezomib, reference compound]	–	–	inhibition of rPfSUB1 activity at 1 μM [5]: Non inhibitory^b; inhibition of rPfSUB1 activity at 1 μM ([5]; listed as bortezomib): lack of inhibition
C[C@H]1[C@H](OC(=O)CCC(=O)O)O[C@@H]2O[C@@]3(C)CC[C@H]4[C@H](C)CC[C@@H]1[C@@]24OO3 [Artesunate, artesunate, reference compound]	–	–	EC50 [2, 6]: 3.7 nM; EC50 [3]: 4.87 nM
CCN(CC)CCCC(C)Nc1ccnc2cc(Cl)ccc12 (centres unmarked) [CQ, chloroquine, reference compound]	–	–	EC50 [2]: 5.36 nM; EC50 [3]: 5.74 nM
Cn1cncc1[C@@](N)(c1ccc(Cl)cc1)c1ccc2c(c1)c(-c1cccc(Cl)c1)cc(=O)n2C [Tipifarnib, reference compound]	–	–	CC50 (concentration that reduced cell viability by 50%) [4]: 30000 nM
CC(C)C[C@H](NC(=O)[C@H](CCc1ccccc1)NC(=O)CN1CCOCC1)C(=O)N[C@@H](Cc1ccccc1)C(=O)N[C@@H](CC(C)C)C(=O)[C@@]1(C)CO1 [carfilzomib, reference compound]	–	–	inhibition of rPfSUB1 activity at 1 μM [5]: lack of inhibition
CC(C)C[C@H](NC(=O)CNC(=O)c1cc(Cl)ccc1Cl)B(O)O [ixazomib, reference compound]	–	–	inhibition of rPfSUB1 activity at 1 μM [5]: lack of inhibition
((3S,6S,12R)-6-((S)-sec-butyl)-3-cyclopentyl-1-(3,5-dimethylphenyl)-1,4,7,10-tetra-oxo-2,5,8,11-tetraazatridecan-12-yl)boronic acid [3d]	–	3.2 ± 0.1 nM	–
